Experimental findings from patent US4992420A, “Dental anti-plaque and anti-caries agent” (priority 1987, dated 1991) are described below.

The term inhibition denotes the percentage by which the read-out fell short of the control.

Assay [1] has as its system A. viscosus OMZ 105. The settings on record: for Inhibitory effect on adhesion to plastic tubes (in words), A. viscosus OMZ 105: preliminary tests; for Inhibition (%) of adhesion to plastic tubes, A. viscosus OMZ 105: 1 mg/ml, 4 h.
In assay [2] the test system is S. sanguis OMZ 9. The conditions noted are these: for Inhibitory effect on adhesion to plastic tubes (in words), S. sanguis OMZ 9: preliminary tests; for Inhibition (%) of adhesion to plastic tubes, S. sanguis OMZ 9: 1 mg/ml, 4 h.
Assay [3] concerns S. sanguis OMZ 9. The experiment in a line: microbe, parasite or virus in culture. The settings on record: Streptococcus, OMZ9, 4 h, read-out: Inhibition (%) of adhesion to plastic tubes, S. sanguis OMZ 9.
The test system of assay [4] is A. viscosus OMZ 105. The experiment in a line: microbe, parasite or virus in culture. The settings on record: Actinomyces viscosus, OMZ105, 4 h, read-out: Inhibition (%) of adhesion to plastic tubes, A. viscosus OMZ 105.
The subject of assay [5] is S. mutans OMZ 176. The assay is described as follows: Inhibition of bacterial adhesion to plastic (polypropylene) tubes, S. mutans. The settings on record: for inhibition at 1000 µg/mL: Streptococcus mutans, OMZ176, 4 h, read-out: Inhibition (%) of adhesion to plastic tubes, S. mutans OMZ 176; for Inhibition (%) of adhesion to plastic tubes, S. mutans OMZ 176: 1 mg/ml, 4 h.

The test system of assay [6] is A. naeslundii ATCC 12104. The conditions noted are these: desialylated human erythrocytes (A+); no control of bacterial growth phase; none = no inhibition up to 20 mg/ml.
In assay [7] the test system is A. viscosus OMZ 105.
For assay [8], the system named is A. viscosus OMZ 206. The experiment in a line: Inhibition of bacterial adhesion to plastic (polypropylene) tubes, A. viscosus OMZ 206. The conditions noted are these: Actinomyces viscosus, OMZ206, 4 h, read-out: Inhibition (%) of adhesion to plastic tubes, A. viscosus OMZ 206.

A value given as a limit tells only on which side of the number the result lay.

Take `NCC(=O)O` [glycine]: in assay [1], the “Inhibitory effect on adhesion to plastic tubes (in words), A. viscosus OMZ 105” value was “nonactivity”. The “Inhibitory effect on adhesion to plastic tubes (in words), S. sanguis OMZ 9” value in assay [2] was “nonactivity”.
Turning to `O=C[C@H](O)[C@@H](O)[C@@H](O)[C@H](O)CO` [Galactose], the figures for the inhibition at 1000 µg/mL in assay [3], in assay [4] and in assay [5] were 12%, 12% and 4%, respectively.
As to `O=C[C@H](O)[C@@H](O)[C@H](O)[C@H](O)CO` [glucose], the “Inhibitory effect on adhesion to plastic tubes (in words), A. viscosus OMZ 105” value in assay [1] is “nonactivity”. Moreover, in assay [2], the “Inhibitory effect on adhesion to plastic tubes (in words), S. sanguis OMZ 9” value is on record as “nonactivity”.
Regarding Polylysine, the “Inhibition (%) of adhesion to plastic tubes, A. viscosus OMZ 105” value (from here on “Inhibition (%) … A. viscosus OMZ 105”) in assay [1] was found to be 46%. Also, the “Inhibition (%) of adhesion to plastic tubes, S. sanguis OMZ 9” value (“Inhibition (%) … S. sanguis OMZ 9” for short) in assay [2] worked out at 12%. Further, in assay [5], the “Inhibition (%) of adhesion to plastic tubes, S. mutans OMZ 176” value (from here on “Inhibition (%) … S. mutans OMZ 176”) is 30%.
For the compound Polyglutamic acid, in assay [1], the “Inhibition (%) … A. viscosus OMZ 105” value is recorded as 22%. The “Inhibition (%) … S. sanguis OMZ 9” value in assay [2] worked out at 6%. For the same compound, the “Inhibition (%) … S. mutans OMZ 176” value in assay [5] is 20%.
With `OC[C@H]1O[C@@H](O[C@H]2[C@H](O)[C@@H](O)C(O)O[C@@H]2CO)[C@H](O)[C@@H](O)[C@H]1O` (stereo partly shown) [Lactose], the “Minimum concentration resulting in complete inhibition of hemagglutination, A. naeslundii ATCC 12104” value in assay [6] was “none”. The “Minimum concentration resulting in complete inhibition of hemagglutination, expressed in galactoside equivalents/ml” value in assay [7] (A. viscosus OMZ harvested in the exponential phase, desialylated human erythrocytes (A+)) was more than 10 mg/mL. Also, the “Minimum concentration resulting in complete inhibition of hemagglutination, expressed in dry weight/ml” value in assay [7] (A. viscosus OMZ harvested in the exponential phase, desialylated human erythrocytes (A+), none = no inhibition up to 20 mg/ml) is recorded as “none”. In assay [7] (desialylated human erythrocytes (A+), no control of bacterial growth phase, none = no inhibition up to 20 mg/ml), the “Minimum concentration resulting in complete inhibition of hemagglutination, A. viscosus OMZ 105” value was “none”. Further, in assay [7] (summary of Tables I and II), the “Inhibition of hemagglutinations governed by type 2 pili (in words)” value was “completely ineffective”. For the same compound, the inhibition at 1000 µg/mL in assay [3] worked out at 12%; in assay [4], 14%; in assay [5] it was 4%; in assay [8], 15%.
Take `COC1OC(CO)C(O)C(O)C1O` (stereo not drawn) [Methyl α mannoside]: in assay [1], the “Inhibition (%) … A. viscosus OMZ 105” value was found to be 10%. In addition, in assay [2], the “Inhibition (%) … S. sanguis OMZ 9” value came out at 11%. Moreover, in assay [5], the “Inhibition (%) … S. mutans OMZ 176” value is on record as 3%.
